The IC50 is the concentration that inhibits the measured activity by half.

IC50 data for nine compounds are collected here from patent US20250206761A1, “HALOINDOLE MACROCYCLIC COMPOUNDS FOR THE TREATMENT OF CANCER” (Hoffmann-La Roche Inc., priority 2022, published 2025).

Assay [1] concerns NCI-H358 (ATCC-CRL5807) cells. The experiment in a line: Cell viability assay, G12C (NCI-H358). The class given is cell-based, human. Conditions: Homo sapiens; KRAS cell viability, NCI-H358, 72 hrs, Cell Counting Kit-8. A digest of the protocol:
(§1)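 Read-out is CCK-8 absorbance (OD450 minus OD650, 2 hrs after reagent), reflecting NADPH after 72 hrs of compound exposure in 0.5% DMSO. Seeding density was 5,000 cells/well for NCI-H358 and 2,000 for AGS and SW620. IC50 derived by 4-parameter sigmoidal fitting.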
Background: Tetrazolium dyes change colour on reduction, which living cells bring about.

The test system of assay [2] is AGS (ATCC-CRL-1739) cells. The experiment in a line: Cell viability assay, G12D (AGS). Conditions: Homo sapiens, KRAS cell viability, 72 hrs, Cell Counting Kit-8. In kind it is cell-based, human. A digest of the protocol: as §1
For a further assay, the system named is SW620 (ATCC-CCL-227). As to the kind of experiment: Cell viability assay, G12V (SW620). The class given is cell-based, human. Conditions: Homo sapiens, SW-620; KRAS cell viability, SW620, 72 hrs, Cell Counting Kit-8. In short, it runs like this:
as §1

The next assay has as its target KRAS G12C-BRAF complex (Homo sapiens (Human), UniProt P01116+P62937, G12C). As to the kind of experiment: KRAS-BRAF with CYPA (500 nM) interaction assay (TR-FRET), G12C. In kind it is biochemical. For orientation: In TR-FRET formats the signal depends on donor and acceptor labels being close together.
The target of assay [3] is KRAS G12D binding to BRAF (Homo sapiens (Human), UniProt P01116+P62937, G12D). The experiment in a line: KRAS-BRAF with CYPA (500 nM) interaction assay (TR-FRET), G12D. In kind it is biochemical.
In assay [4] the test system is phosphorylation of ERK, KRAS G12C in NCJ-H358 cells. As to the kind of experiment: pERK inhibition assay, KRAS G12C. To be noted: Homo sapiens, 4 hours. In kind it is cell-based, human. A digest of the protocol:
(§2)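 Cells in RPMI-1640 with 10% FBS were plated overnight (NCJ-H358 30,000, AGS 20,000, SW620 30,000 cells/well), then exposed to compounds in 0.5% DMSO for 4 h. Fixed, methanol-permeabilized cells were probed for pERK by HRP-based in-cell ELISA with TMB, OD450; IC50 from 4-parameter sigmoidal fit.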

The subject of assay [5] is phosphorylation of ERK, KRAS G12V in SW620. As to the kind of experiment: pERK inhibition assay, KRAS G12V. In kind it is cell-based, human. To be noted: Homo sapiens, SW-620, SW620, 4 hours. In short, it runs like this:
as §2

Each structure is given as a SMILES string.

Chain of KRAS G12C-BRAF complex (P01116-2 other isoform, or with tags, fused parts or gaps G12C): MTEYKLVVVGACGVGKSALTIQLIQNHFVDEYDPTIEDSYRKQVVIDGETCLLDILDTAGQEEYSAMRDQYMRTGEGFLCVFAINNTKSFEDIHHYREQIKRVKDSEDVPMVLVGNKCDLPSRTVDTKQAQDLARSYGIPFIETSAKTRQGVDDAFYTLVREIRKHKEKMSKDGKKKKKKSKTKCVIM
Chain of KRAS G12C-BRAF complex (P62937 whole entry): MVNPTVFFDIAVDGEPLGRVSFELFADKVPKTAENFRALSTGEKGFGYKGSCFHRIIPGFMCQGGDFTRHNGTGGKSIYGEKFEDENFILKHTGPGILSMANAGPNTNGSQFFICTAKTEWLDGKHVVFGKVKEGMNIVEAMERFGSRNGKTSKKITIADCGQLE
Chain of KRAS G12D binding to BRAF (P01116-2 other isoform, or with tags, fused parts or gaps G12D): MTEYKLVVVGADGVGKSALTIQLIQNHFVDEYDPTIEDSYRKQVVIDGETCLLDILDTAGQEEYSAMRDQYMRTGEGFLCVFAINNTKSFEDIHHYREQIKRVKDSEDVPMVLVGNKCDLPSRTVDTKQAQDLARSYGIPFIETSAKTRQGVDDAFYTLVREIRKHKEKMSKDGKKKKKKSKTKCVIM
Chain of KRAS G12D binding to BRAF (P62937 whole entry): as the sequence (P62937 whole entry) above

For `CO[C@@H](C)c1ncc(N2CCN(C)CC2)cc1-c1c2c3cc(c(F)cc3n1CC(F)(F)F)-c1csc(n1)C[C@H](NC(=O)[C@H](C(C)C)N1CCC[C@@]3(CCN(C(=O)[C@H](F)Cl)C3)C1=O)C(=O)N1CCC[C@H](N1)C(=O)OCC(C)(C)C2` (single isomer, unassigned) [Example 16], the concentration for half-maximal inhibition (IC50) in assay [1] was less than 1 nM; in assay [2], 2650 nM; with SW620 (ATCC-CCL-227), 22 nM; against KRAS G12C-BRAF complex, 100 nM; in assay [3], more than 10000 nM; in assay [4], 1 nM. Also, in assay [5], the midpoint of inhibition, the IC50, lay at 15 nM.

As for `CO[C@@H](C)c1ncc(N2CCN(C)CC2)cc1-c1c2c3cc(c(F)cc3n1CC(F)(F)F)-c1csc(n1)C[C@H](NC(=O)[C@H](C(C)C)N1CCC[C@]3(CCN(C(=O)[C@H](F)Cl)C3)C1=O)C(=O)N1CCC[C@H](N1)C(=O)OCC(C)(C)C2` (single isomer, unassigned) [Example 18], the IC50 turned out to be 1 nM in assay [1]; 3700 nM in assay [2]; 19 nM with SW620 (ATCC-CCL-227); 71 nM at KRAS G12C-BRAF complex; 1660 nM in assay [3]; 3 nM in assay [4]. Also, the IC50 in assay [5] worked out at 18 nM.

Turning to `CO[C@@H](C)c1ncc(N2CCN(C)CC2)cc1-c1c2c3c(F)c(ccc3n1CC(F)(F)F)-c1csc(n1)C[C@H](NC(=O)[C@H](C(C)C)N1CCCC3(CCN(C(=O)[C@H](F)Cl)CC3)C1=O)C(=O)N1CCC[C@H](N1)C(=O)OCC(C)(C)C2` (atropisomer, axis not shown; (M)) [Example 20, (2S)-2-[9-[(2R)-2-chloro-2-fluoro-acetyl]-1-oxo-2,9-diazaspiro[5.5]undecan-2-yl]-N-[(7S,13S)-25-fluoro-(20M)-20-[2-[(1S)-1-methoxyethyl]-5-(4-methylpiperazin-1-yl)-3-pyridyl]-17,17-dimethyl-8,14-dioxo-21-(2,2,2-trifluoroethyl)-15-oxa-4-thia-9,21,27,28-tetrazapentacyclo[17.5.2.1^2,5.1^9,13.0^22,26]octacosa-1(25),2,5(28),19,22(26),23-hexaen-7-yl]-3-methyl-butanamide], the IC50 turned out to be 3 nM in assay [1]; 745 nM in assay [2]; 66 nM in the assay on SW620 (ATCC-CCL-227); 148 nM against KRAS G12C-BRAF complex; 1240 nM in assay [3]; 5 nM in assay [4]. In assay [5], this compound gave an IC50 of 73 nM.

As to `CCn1c(-c2cc(N3CCN(CC(F)(F)F)CC3)cnc2[C@H](C)OC)c2c3cc(c(F)cc31)-c1csc(n1)C[C@H](NC(=O)[C@H](C(C)C)N(C)C(=O)C1(F)CCN(C(=O)[C@H](F)Cl)CC1)C(=O)N1CCC[C@H](N1)C(=O)OCC(C)(C)C2` (atropisomer, axis not shown; (M)) [Example 49, 1-[(2R)-2-chloro-2-fluoro-acetyl]-N-[(1S)-1-[[(7S,13S)-21-ethyl-24-fluoro-(20M)-20-[2-[(1S)-1-methoxyethyl]-5-[4-(2,2,2-trifluoroethyl)piperazin-1-yl]-3-pyridyl]-17,17-dimethyl-8,14-dioxo-15-oxa-4-thia-9,21,27,28-tetrazapentacyclo[17.5.2.1^2,5.1^9,13.0^22,26]octacosa-1(25),2,5(28),19,22(26),23-hexaen-7-yl]carbamoyl]-2-methyl-propyl]-4-fluoro-N-methyl-piperidine-4-carboxamide], the IC50 in assay [1] was less than 1 nM; in assay [2] it was 73 nM; in the assay on SW620 (ATCC-CCL-227) it was 42 nM; at KRAS G12C-BRAF complex, 15 nM; in assay [3] it was 444 nM; in assay [4], 3 nM. The compound further returned a half-inhibitory concentration (IC50) in assay [5] of 20 nM.

Regarding `CC(C)[C@@H](C(=O)N[C@H]1Cc2cc(O)cc(c2)-c2ccc3c(C(C)(C)C#N)cn(c3c2)CC(C)(C)COC(=O)[C@@H]2CCCN(N2)C1=O)N1CCCC2(CCN(C(=O)CCl)C2)C1=O` (stereo partly shown) [RM351, reference compound], the IC50 was 2100 nM in assay [2]; more than 10000 nM against KRAS G12C-BRAF complex; more than 10000 nM in assay [3]; 356 nM in assay [4]; more than 10000 nM in assay [5].

On to `CO[C@@H](C)c1ncc(N2CCN(C)CC2)cc1-c1c2c3cc(c(F)cc3n1CC(F)(F)F)-c1csc(n1)C[C@H](NC(=O)[C@H](C(C)C)N(C)C(=O)C1(F)CCN(C(=O)[C@H](F)Cl)CC1)C(=O)N1CCC[C@H](N1)C(=O)OCC(C)(C)C2` (atropisomer, axis not shown; (M)) [Example 10, 1-[(2R)-2-chloro-2-fluoro-acetyl]-4-fluoro-N-[(1S)-1-[[(7S,13S)-24-fluoro-(20M)-20-[2-[(1S)-1-methoxyethyl]-5-(4-methylpiperazin-1-yl)-3-pyridyl]-17,17-dimethyl-8,14-dioxo-21-(2,2,2-trifluoroethyl)-15-oxa-4-thia-9,21,27,28-tetrazapentacyclo[17.5.2.1^2,5.1^9,13.0^22,26]octacosa-1(25),2,5(28),19,22(26),23-hexaen-7-yl]carbamoyl]-2-methyl-propyl]-N-methyl-piperidine-4-carboxamide], for which the IC50 in assay [1] is less than 1 nM; in assay [2] it was 105 nM; with SW620 (ATCC-CCL-227) it was 8 nM; against KRAS G12C-BRAF complex, 20 nM; in assay [3] it was 964 nM; in assay [4], less than 1 nM. The same compound showed an IC50 in assay [5] of 6 nM.

On to `CCn1c(-c2cc(N3CCOCC3)cnc2[C@H](C)OC)c2c3cc(c(F)cc31)-c1csc(n1)C[C@H](NC(=O)[C@H](C(C)C)N(C)C(=O)[C@H]1CCN(C(=O)[C@H](F)Cl)C1)C(=O)N1CCC[C@H](N1)C(=O)OCC(C)(C)C2` (atropisomer, axis not shown; (M)) [Example 55, (3S)-1-[(2R)-2-chloro-2-fluoro-acetyl]-N-[(1S)-1-[[(7S,13S)-21-ethyl-24-fluoro-(20M)-20-[2-[(1S)-1-methoxyethyl]-5-morpholino-3-pyridyl]-17,17-dimethyl-8,14-dioxo-15-oxa-4-thia-9,21,27,28-tetrazapentacyclo[17.5.2.1^2,5.1^9,13.0^22,26]octacosa-1(25),2,5(28),19,22(26),23-hexaen-7-yl]carbamoyl]-2-methyl-propyl]-N-methyl-pyrrolidine-3-carboxamide], for which the half-inhibitory concentration (IC50) was less than 3 nM in assay [1]; 848 nM in assay [2]; 155 nM in the assay with SW620 (ATCC-CCL-227); 40 nM against KRAS G12C-BRAF complex; more than 10000 nM in assay [3]; 6 nM in assay [4]. Also, half-maximal inhibition in assay [5] (IC50) required 75 nM.

With `CO[C@@H](C)c1ncc(N2CCN(C)CC2)cc1-c1c2c3cc(c(F)cc3n1CC(F)(F)F)-c1csc(n1)C[C@H](NC(=O)[C@H](C(C)C)N1CCCC3(CN(C(=O)[C@H](F)Cl)C3)C1=O)C(=O)N1CCC[C@H](N1)C(=O)OCC(C)(C)C2` (atropisomer, axis not shown; (M)) [Example 11, (2S)-2-[2-[(2R)-2-chloro-2-fluoro-acetyl]-5-oxo-2,6-diazaspiro[3.5]nonan-6-yl]-N-[(7S,13S)-24-fluoro-(20M)-20-[2-[(1S)-1-methoxyethyl]-5-(4-methylpiperazin-1-yl)-3-pyridyl]-17,17-dimethyl-8,14-dioxo-21-(2,2,2-trifluoroethyl)-15-oxa-4-thia-9,21,27,28-tetrazapentacyclo[17.5.2.1^2,5.1^9,13.0^22,26]octacosa-1(25),2,5(28),19,22(26),23-hexaen-7-yl]-3-methyl-butanamide], the half-maximal inhibitory concentration (IC50) in assay [1] was less than 1 nM; in assay [2], 1880 nM; in the assay on SW620 (ATCC-CCL-227), 29 nM; against KRAS G12C-BRAF complex it was 45 nM; in assay [3] it was more than 10000 nM; in assay [4], less than 1 nM. The half-inhibitory concentration (IC50) in assay [5] is 22 nM.

Regarding `CO[C@@H](C)c1ncc(N2CCN(C)CC2)cc1-c1c2c3cc(c(F)cc3n1CC(F)(F)F)-c1cc(O)cc(c1)C[C@H](NC(=O)[C@H](C(C)C)N(C)C(=O)[C@H]1CCN(C(=O)[C@H](F)Cl)C1)C(=O)N1CCC[C@H](N1)C(=O)OCC(C)(C)C2` (atropisomer, axis not shown; (M)) [Example 8, (3S)-1-[(2R)-2-chloro-2-fluoro-acetyl]-N-[(1S)-1-[[(8S,14S)-25-fluoro-4-hydroxy-(21M)-21-[2-[(1S)-1-methoxyethyl]-5-(4-methylpiperazin-1-yl)-3-pyridyl]-18,18-dimethyl-9,15-dioxo-22-(2,2,2-trifluoroethyl)-16-oxa-10,22,28-triazapentacyclo[18.5.2.1^2,6.1^10,14.0^23,27]nonacosa-1(26),2,4,6(29),20,23(27),24-heptaen-8-yl]carbamoyl]-2-methyl-propyl]-N-methyl-pyrrolidine-3-carboxamide], the IC50 in assay [1] was 3 nM; in assay [2], 1560 nM; in the assay with SW620 (ATCC-CCL-227) it was 175 nM; against KRAS G12C-BRAF complex, 3 nM; in assay [3], 85 nM; in assay [4], 2 nM. In addition, the IC50 in assay [5] is 127 nM.
